The results in this text go back to patent publication US9708334B2, “Substituted 2,4,5,6-tetrahydropyrrolo[3,4-c]pyrazole and 4,5,6,7-tetrahydro-2H-pyrazolo[4,3-c]pyridine compounds as GlyT1 inhibitors” (DART NEUROSCIENCE (CAYMAN) LTD., priority 2014, dated 2017).

Molecules are shown by their SMILES.

In the assay the target is T1, GlyT1 (Homo sapiens, UniProt P48067).
T1 construct: expressed in transfected cells
T1 sequence (P48067 1-706): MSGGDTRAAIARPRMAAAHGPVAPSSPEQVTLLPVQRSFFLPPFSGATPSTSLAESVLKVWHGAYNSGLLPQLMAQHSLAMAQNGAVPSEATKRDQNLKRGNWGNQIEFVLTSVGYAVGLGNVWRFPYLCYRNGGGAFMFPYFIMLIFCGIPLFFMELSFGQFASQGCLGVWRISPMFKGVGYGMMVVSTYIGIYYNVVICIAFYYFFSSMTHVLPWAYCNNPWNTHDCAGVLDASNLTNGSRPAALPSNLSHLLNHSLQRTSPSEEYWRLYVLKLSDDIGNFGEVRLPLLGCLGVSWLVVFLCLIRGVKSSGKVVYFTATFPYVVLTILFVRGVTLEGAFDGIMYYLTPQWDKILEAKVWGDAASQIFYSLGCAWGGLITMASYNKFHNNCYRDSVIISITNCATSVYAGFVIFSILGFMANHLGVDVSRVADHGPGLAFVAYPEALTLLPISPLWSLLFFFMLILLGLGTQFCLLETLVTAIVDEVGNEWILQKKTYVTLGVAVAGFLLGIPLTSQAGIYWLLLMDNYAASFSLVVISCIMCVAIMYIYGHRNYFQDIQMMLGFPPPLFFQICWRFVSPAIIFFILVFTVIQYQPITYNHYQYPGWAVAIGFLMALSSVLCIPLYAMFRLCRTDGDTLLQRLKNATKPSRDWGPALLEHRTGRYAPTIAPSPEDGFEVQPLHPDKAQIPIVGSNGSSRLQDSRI
As to the kind of experiment: Glycine Transporter 1 (GlyT1) uptake assay, scintillation proximity assay of [14C]-glycine uptake. Type of assay: cell-based. The conditions noted are these: SPA, four parameter logistic fit, read-out: GlyT1 (pIC50) (converted). In outline:
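IC50 values derive from four-parameter logistic curves fitted to dose-response data. Uptake of [14C]-glycine measured in scintillation proximity format.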
For the compound `COc1c(C#N)ccc(OCC(F)(F)F)c1C(=O)N1Cc2cn(-c3ccc(F)c(C)n3)nc2C1` [Example 533, 3-[2-(5-Fluoro-6-methylpyridin-2-yl)-2H 4H 5H 6H-pyrrolo[3,4-c]pyrazole-5-carbonyl]-2-methoxy-4-(2 2 2-trifluoroethoxy)benzonitrile], the IC50 is < 100 nM.

Turning to `Cc1ccnc(-n2cc3c(n2)CN(C(=O)c2c(O[C@@H](C)C(F)(F)F)ccc(C#N)c2Cl)C3)c1` [Example 273, 2-Chloro-3-[2-(4-methylpyridin-2-yl)-2H 4H 5H 6H-pyrrolo[3,4-c]pyrazole-5-carbonyl]-4-{[(2S)-1 1 1-trifluoropropan-2-yl]oxy}benzonitrile], the IC50 was < 100 nM.

As to `Cc1cccc(-c2ccc(C#N)cc2C(=O)N2Cc3cn(-c4ccnc(C)c4)nc3C2)c1` [Example 564, 4-(3-Methylphenyl)-3-[2-(2-methylpyridin-4-yl)-2H 4H 5H 6H-pyrrolo[3,4-c]pyrazole-5-carbonyl]benzonitrile], the IC50 was 1000 to 10000 nM.

For `COc1c(C#N)ccc(OC(C)C(C)C)c1C(=O)N1Cc2cn(-c3ccc(F)cc3)nc2C1` (stereo not drawn) [Example 523, 3-[2-(4-Fluorophenyl)-2H 4H 5H 6H-pyrrolo[3,4-c]pyrazole-5-carbonyl]-2-methoxy-4-[(3-methylbutan-2-yl)oxy]benzonitrile], the IC50 was < 100 nM.

Regarding `COc1c(C#N)ccc(OCC(F)F)c1C(=O)N1Cc2cn(-c3ccccc3)nc2C1` [Example 329, 4-(2 2-Difluoroethoxy)-2-methoxy-3-{2-phenyl-2H 4H 5H 6H-pyrrolo{3,4-c]pyrazole-5-carbonyl}benzonitrile], the IC50 is < 100 nM.

Turning to `CC(C)c1cc(-n2cc3c(n2)CN(C(=O)c2cc(C#N)ccc2O[C@@H](C)C(F)(F)F)C3)ccn1` [Example 375, 3-{2-[2-(Propan-2-yl)pyridin-4-yl]-2H 4H 5H 6H-pyrrolo[3,4-c]pyrazole-5-carbonyl}-4-{[(2S)-1 1 1-trifluoropropan-2-yl]oxy}benzonitrile], the IC50 was < 100 nM.

Consider `C[C@H](Oc1ccc(C#N)cc1C(=O)N1Cc2cn(C3CCC(F)(F)CC3)nc2C1)C(F)(F)F` [Example 472, 3-[2-(4 4-Difluorocyclohexyl)-2H 4H 5H 6H-pyrrolo[3,4-c]pyrazole-5-carbonyl]-4-{[(2S)-1 1 1-trifluoropropan-2-yl]oxy}benzonitrile], for which the IC50 was 100 to 1000 nM.

As to `CS(=O)(=O)c1ccc(OCC(F)(F)F)c(C(=O)N2Cc3cn(-c4ccccc4F)nc3C2)c1` [Example 104, 2-(2-Fluorophenyl)-5-[5-methanesulfonyl-2-(2 2 2-trifluoroethoxy)benzoyl]-2H 4H 5H 6H-pyrrolo[3,4-c]pyrazole], the IC50 is < 100 nM.

Consider `CCS(=O)(=O)c1ccc(O[C@@H](C)C(F)(F)F)c(C(=O)N2Cc3cn(-c4ccnc(C)c4)nc3C2)c1` [Example 113, 4-{5-[5-(Ethanesulfonyl)-2-{[(2S)-1 1 1-trifluoropropan-2-yl]oxy}benzoyl]-2H 4H 5H 6H-pyrrolo[3,4-c]pyrazol-2-yl}-2-methylpyridine], for which the IC50 is < 100 nM.

Turning to `CS(=O)(=O)c1ccc(-c2cccc(F)c2)c(C(=O)N2Cc3cnn(CC4CC4)c3C2)c1` [Example 452, 1-(Cyclopropylmethyl)-5-[2-(3-fluorophenyl)-5-methanesulfonylbenzoyl]-1H 4H 5H 6H-pyrrolo[3,4-c]pyrazole], the IC50 is 1000 to 10000 nM.

`Cc1ncc(-n2cc3c(n2)CN(C(=O)c2cc(C#N)ccc2O[C@@H](C)C(F)(F)F)C3)cc1F` [Example 351, 3-[2-(5-Fluoro-6-methylpyridin-3-yl)-2H 4H 5H 6H-pyrrolo[3,4-c]pyrazole-5-carbonyl]-4-{[(2 S)-1 1 1-trifluoropropan-2-yl]oxy}benzonitrile]: the IC50 is 100 to 1000 nM.

As for `COc1cc(-n2cc3c(n2)CN(C(=O)c2c(O[C@@H](C)C(F)(F)F)ccc(C#N)c2OC)C3)ccn1` [Example 277, 2-Methoxy-3-[2-(2-methoxypyridin-4-yl)-2H 4H 5H 6H-pyrrolo[3,4-c]pyrazole-5-carbonyl]-4-{[(2S)-1 1 1-trifluoropropan-2-yl]oxy}benzonitrile], the IC50 was < 100 nM.
